Data: patent publication US5462935A, “Cephalosporin compounds” (Lucky Limited, priority 1990, dated 1995)
≈ marks a conversion by molar mass, not a printed value.

What was measured:
[1] = in vivo absorbency test (plasma concentration, pharmacokinetic parameters); set-up: species or system SD rats (male); conditions: rat, in vivo, iv, 20 mg/kg
Procedure: In addition to the in vitro tests described above, in vivo absorbency tests for the two selected compounds of formulas (I-S-1) and (I-R-1), along with Ceftadizime, were carried out by administering intravenously, in a dose of 20 mg/kg, each of these two compounds into SD rats (male) weighing 220 to 340 g; […], which were analyzed by employing the bio-assay or agar well method. About 10 to 15 rats were used for each of the compounds.
Notes: (1) Two-Compartment Model
(3) Tested Animal: Rats(male; 220-340 g)

[2] = tested on: Proteus vulgaris ATCC 6059; experiment: minimal inhibitory concentration, two-fold agar dilution; assay type: cell-based; conditions: ATCC6059, Muller-Hinton agar, 37° C., 20 hours
Procedure: (§1) These NIC values were taken by employing a two-fold dilution method: that is, two-fold serial dilutions of each of the test compounds were made and dispersed in a Muller-Hinton agar medium; 2 μl of the standard test strain which had the 10^7 CFU (Colony Forming Unit) per ml was inoculated on the medium; and these were incubated at 37° C. for 20 hours.

[3] = tested on: Staphylococcus aureus ATCC 6638p; experiment: as above; assay type: cell-based; conditions: ATCC6638P, 20 h
Procedure: as §1

[4] = tested on: Acinetobacter calcoaceticus ATCC 15473; experiment: as above; assay type: cell-based; conditions: ATCC15473, Muller-Hinton agar, 37° C., 20 hours
Procedure: as §1

[5] = tested on: Klebsiella pneumoniae ATCC 10031; experiment: as above; assay type: cell-based; conditions: ATCC10031, Muller-Hinton agar, 37° C., 20 hours
Procedure: as §1

[6] = tested on: Staphylococcus epidermidis ATCC 10537; experiment: as above; assay type: cell-based; conditions: ATCC10537, Muller-Hinton agar, 37° C., 20 hours
Procedure: as §1

[7] = tested on: Citrobacter freundii ATCC 8090; experiment: as above; assay type: cell-based; conditions: ATCC8090, Muller-Hinton agar, 37° C., 20 hours
Procedure: as §1

[8] = tested on: Micrococcus luteus ATCC 9341; experiment: as above; assay type: cell-based; conditions: ATCC9341, Muller-Hinton agar, 37° C., 20 hours
Procedure: as §1

[9] = tested on: Bacillus megaterium ATCC 9885; experiment: as above; assay type: cell-based; conditions: Priestia megaterium, ATCC9885, 20 h
Procedure: as §1

ATCC 12228 = experiment: as above; assay type: cell-based; conditions: Staphylococcus faecalis, ATCC12228, 20 h
Procedure: as §1

[10] = tested on: Enterobacter aerogenes ATCC 29751; experiment: as above; assay type: cell-based; conditions: Klebsiella aerogenes, ATCC29751, 20 h
Procedure: as §1

[11] = tested on: Enterobacter cloacae ATCC 27508; experiment: as above; assay type: cell-based; conditions: ATCC27508, Muller-Hinton agar, 37° C., 20 hours
Procedure: as §1

[12] = tested on: Shigella flexneri ATCC 11836; experiment: as above; assay type: cell-based; conditions: ATCC11836, Muller-Hinton agar, 37° C., 20 hours
Procedure: as §1

[13] = tested on: Morganella morganii ATCC 8076h; experiment: as above; assay type: cell-based; conditions: ATCC8076H, 20 h
Procedure: as §1

[14] = tested on: Serratia marcescens ATCC 27117; experiment: as above; assay type: cell-based; conditions: ATCC27117, Muller-Hinton agar, 37° C., 20 hours
Procedure: as §1

[15] = tested on: Proteus mirabilis ATCC 25933; experiment: as above; assay type: cell-based; conditions: ATCC25933, Muller-Hinton agar, 37° C., 20 hours
Procedure: as §1

[16] = tested on: Bacillus cereus ATCC 11778; experiment: as above; assay type: cell-based; conditions: Bacillus cereus, ATCC11778, 20 h
Procedure: as §1

[17] = tested on: Streptococcus faecalis ATCC 29212; experiment: as above; assay type: cell-based; conditions: Enterococcus faecalis, ATCC29212, Muller-Hinton agar, 37° C., 20 hours
Procedure: as §1

[18] = tested on: Pseudomonas aerugionsa ATCC 27853; experiment: as above; assay type: cell-based; conditions: ATCC27853, Muller-Hinton agar, 37° C., 20 hours
Procedure: as §1

[19] = tested on: Shigella sonnei ATCC 11060; experiment: as above; assay type: cell-based; conditions: ATCC11060, Muller-Hinton agar, 37° C., 20 hours
Procedure: as §1

[20] = tested on: Pseudomonas aeruginosa ATCC 25619; experiment: as above; assay type: cell-based; conditions: ATCC25619, Muller-Hinton agar, 37° C., 20 hours
Procedure: as §1

[21] = tested on: Salmonella typhimurium ATCC 14028; experiment: as above; assay type: cell-based; conditions: Salmonella enterica, Muller-Hinton agar, 37° C., 20 hours
Procedure: as §1

[22] = tested on: Pseudomonas aerugionsa ATCC 10145; experiment: as above; assay type: cell-based; conditions: ATCC10145, Muller-Hinton agar, 37° C., 20 hours
Procedure: as §1

[23] = acute toxicity test, intravenous; conditions: mouse, in vivo, ICR mice, observed for 14 days
Excerpt: The results are shown in the last row of Table 2.

[24] = tested on: Providencia rettgeri ATCC 9250; experiment: minimal inhibitory concentration, two-fold agar dilution; assay type: cell-based; conditions: ATCC9250, Muller-Hinton agar, 37° C., 20 hours
Procedure: as §1

[25] = tested on: Escherichia coli ATCC 10536; experiment: as above; assay type: cell-based; conditions: ATCC10536, Muller-Hinton agar, 37° C., 20 hours
Procedure: as §1

[26] = tested on: Escherichia coli ATCC 25922; experiment: as above; assay type: cell-based; conditions: ATCC25922, Muller-Hinton agar, 37° C., 20 hours
Procedure: as §1

| SMILES | MIC [2] | MIC [3] | MIC [4] | MIC [5] | MIC [6] | MIC [7] | MIC [8] | MIC [9] | MIC (ATCC 12228) | MIC [10] | MIC [11] | MIC [12] | MIC [13] | MIC [14] | MIC [15] | MIC [16] | MIC [17] | MIC [18] | MIC [19] | MIC [20] | also measured |
| --- | --- | --- | --- | --- | --- | --- | --- | --- | --- | --- | --- | --- | --- | --- | --- | --- | --- | --- | --- | --- | --- |
| CC(C)(O/N=C(\C(=O)N[C@@H]1C(=O)N2C(C(=O)[O-])=C(C[n+]3ccccc3)CS[C@H]12)c1csc(N)n1)C(=O)O [CTZ, Ceftazidime, reference compound] | 0.063 µg/mL (≈ 0.115 µM) | 16 µg/mL (≈ 29.3 µM) | 4 µg/mL (≈ 7.32 µM) | 0.063 µg/mL (≈ 0.115 µM) | 8 µg/mL (≈ 14.6 µM) | 0.13 µg/mL (≈ 0.238 µM) | 0.5 µg/mL (≈ 0.915 µM) | 0.25 µg/mL (≈ 0.457 µM) | 4 µg/mL (≈ 7.32 µM) | 4 µg/mL (≈ 7.32 µM) | 0.031 µg/mL (≈ 0.0567 µM) | 0.063 µg/mL (≈ 0.115 µM) | ≤ 0.008 µg/mL | 0.25 µg/mL (≈ 0.457 µM) | 0.063 µg/mL (≈ 0.115 µM) | 128 µg/mL (≈ 234 µM) | > 128 µg/mL | 1 µg/mL (≈ 1.83 µM) | 0.13 µg/mL (≈ 0.238 µM) | 1 µg/mL (≈ 1.83 µM) | AUC [1]: 28100 ng·h/mL; concentration at 10 min [1]: 50000 ng/mL; MIC [21]: 0.25 µg/mL (≈ 0.457 µM); MIC [22]: 2 µg/mL (≈ 3.66 µM) |
| C[C@@H](O/N=C(\C(=O)NC1C(=O)N2C(C(=O)[O-])=C(CSc3nc(N)cc(N)[n+]3C)CS[C@H]12)c1csc(N)n1)C(=O)O (stereo partly drawn) [I-R-2, 7-[(Z)-2-(2-aminothiazol-4-yl)-2-[(R)-1-carboxyeth-1-oxyimino]acetamido]-3-[(4,6-diamino-1-methylpyrimidinium-2-yl)thiomethyl]-3-cephem-4-carboxylate] | 0.031 µg/mL (≈ 0.0508 µM) | 4 µg/mL (≈ 6.56 µM) | 4 µg/mL (≈ 6.56 µM) | 0.031 µg/mL (≈ 0.0508 µM) | 2 µg/mL (≈ 3.28 µM) | 0.063 µg/mL (≈ 0.103 µM) | 0.5 µg/mL (≈ 0.82 µM) | 1 µg/mL (≈ 1.64 µM) | 2 µg/mL (≈ 3.28 µM) | 1 µg/mL (≈ 1.64 µM) | 0.016 µg/mL (≈ 0.0262 µM) | 0.031 µg/mL (≈ 0.0508 µM) | ≤ 0.008 µg/mL | 0.063 µg/mL (≈ 0.103 µM) | 0.031 µg/mL (≈ 0.0508 µM) | > 128 µg/mL | > 128 µg/mL | 1 µg/mL (≈ 1.64 µM) | 0.031 µg/mL (≈ 0.0508 µM) | 2 µg/mL (≈ 3.28 µM) | LD50 at 336 h [23]: > 3000 mg/kg; MIC [24]: ≤ 0.008 µg/mL; MIC [25]: 0.063 µg/mL (≈ 0.103 µM); MIC [26]: 0.031 µg/mL (≈ 0.0508 µM); MIC [21]: 0.13 µg/mL (≈ 0.213 µM); MIC [22]: 2 µg/mL (≈ 3.28 µM) |
| CC[n+]1c(N)cc(N)nc1SCC1=C(C(=O)[O-])N2C(=O)C(NC(=O)/C(=N\O[C@H](C)C(=O)O)c3csc(N)n3)[C@H]2SC1 (stereo partly drawn) [I-R-3, 7-[(Z)-2-(2-aminothiazol-4-yl)-2-[(R)-1-carboxyeth-1-oxyimino]acetamido]-3-[(4,6-diamino-1-ethylpyrimidinium-2-yl)thiomethyl]-3-cephem-4-carboxylate] | 0.031 µg/mL (≈ 0.0497 µM) | 2 µg/mL (≈ 3.21 µM) | 4 µg/mL (≈ 6.41 µM) | 0.031 µg/mL (≈ 0.0497 µM) | 2 µg/mL (≈ 3.21 µM) | 0.063 µg/mL (≈ 0.101 µM) | 0.25 µg/mL (≈ 0.401 µM) | 1 µg/mL (≈ 1.6 µM) | 1 µg/mL (≈ 1.6 µM) | 0.5 µg/mL (≈ 0.802 µM) | 0.016 µg/mL (≈ 0.0257 µM) | 0.031 µg/mL (≈ 0.0497 µM) | ≤ 0.008 µg/mL | 0.063 µg/mL (≈ 0.101 µM) | 0.031 µg/mL (≈ 0.0497 µM) | 128 µg/mL (≈ 205 µM) | > 128 µg/mL | 1 µg/mL (≈ 1.6 µM) | 0.031 µg/mL (≈ 0.0497 µM) | 1 µg/mL (≈ 1.6 µM) | LD50 at 336 h [23]: > 3000 mg/kg; MIC [24]: ≤ 0.008 µg/mL; MIC [25]: 0.063 µg/mL (≈ 0.101 µM); MIC [26]: 0.063 µg/mL (≈ 0.101 µM); MIC [21]: 0.13 µg/mL (≈ 0.208 µM); MIC [22]: 2 µg/mL (≈ 3.21 µM) |
